Test results: US11850252B2, “Use of nor-ursodeoxycholic acid for reducing liver fat” (Dr. Falk Pharma GmbH, priority 2017, dated 2023)

Tested on: Patients with a clinical diagnosis of non-alcoholic hepatic steatosis
Assay: Ultrasound examination of the liver (steatosis hepatis grade), phase II clinical trial
Assay type: in vivo, human
Protocol: A double-blinded, randomized, placebo-controlled phase II clinical trial was conducted as described in the following.
Patients with a clinical diagnosis of non-alcoholic hepatic steatosis were randomized to a 12-week treatment period and a 4-week follow-up. Patients were divided into three groups. The first groups received 1,500 mg Nor-UDCA per day (6 capsules with 250 mg Nor-UDCA in each capsule). The second group received 500 mg Nor-UDCA per day (2 capsules with 250 mg Nor-UDCA in each capsule and 4 capsules with 250 mg placebo in each capsule). The third group received 6 capsules with 250 mg placebo in each capsule.
The ultrasound examination was performed at V1 or within 4 weeks before and 1 week after V1 and at V6.
The liver was scored by the most affected area.

[1] = N500 (500 mg Nor-UDCA per day), V1 screening
[2] = N500 (500 mg Nor-UDCA per day), V6 week 12
[3] = N1500 (1,500 mg Nor-UDCA per day), V1 screening
[4] = N1500 (1,500 mg Nor-UDCA per day), V6 week 12

SMILES: CC(CC(=O)O)[C@H]1CCC2[C@H]3C(CC[C@@]21C)[C@@]1(C)CCC(O)C[C@H]1C[C@@H]3O (stereo partly shown) [Nor-UDCA, 24-nor-ursodeoxycholic acid]
- Number (%) of patients, steatosis hepatis grade Mild steatosis (S1) [1]: 21.2%
- Number (%) of patients, steatosis hepatis grade Moderate steatosis (S2) [1]: 45.5%
- Number (%) of patients, steatosis hepatis grade No/minimal steatosis (S0) [1]: 6.1%
- Number (%) of patients, steatosis hepatis grade Severe steatosis (S3) [1]: 27.3%
- Number (%) of patients, steatosis hepatis grade Mild steatosis (S1) [2]: 28.8%
- Number (%) of patients, steatosis hepatis grade Moderate steatosis (S2) [2]: 51.5%
- Number (%) of patients, steatosis hepatis grade No/minimal steatosis (S0) [2]: 3.0%
- Number (%) of patients, steatosis hepatis grade Severe steatosis (S3) [2]: 16.7%
- Number (%) of patients, steatosis hepatis grade Mild steatosis (S1) [3]: 26.6%
- Number (%) of patients, steatosis hepatis grade Moderate steatosis (S2) [3]: 53.1%
- Number (%) of patients, steatosis hepatis grade No/minimal steatosis (S0) [3]: 0.0%
- Number (%) of patients, steatosis hepatis grade Severe steatosis (S3) [3]: 20.3%
- Number (%) of patients, steatosis hepatis grade Mild steatosis (S1) [4]: 26.6%
- Number (%) of patients, steatosis hepatis grade Moderate steatosis (S2) [4]: 62.5%
- Number (%) of patients, steatosis hepatis grade No/minimal steatosis (S0) [4]: 0.0%
- Number (%) of patients, steatosis hepatis grade Severe steatosis (S3) [4]: 10.9%
